Reference: ChEMBL document CHEMBL2401737 (J Med Chem, 2013)

What was measured:
[1] = system: Human immunodeficiency virus; assay: Ratio of IC50 for pseudo Human immunodeficiency virus to IC50 for pseudo Human immunodeficiency virus in presence of human serum albumin; assay type: functional
[2] = system: Human immunodeficiency virus; assay: Antiviral activity against Human immunodeficiency virus harboring integrase Q148K mutant infected in human HeLa cells expressing CD4 after 2 days by beta galactosidase assay relative to wild type HIV; assay type: functional
[3] = system: Human immunodeficiency virus; assay: Antiviral activity against pseudo Human immunodeficiency virus infected in HEK293T cells after 2 days in presence of human serum albumin; assay type: functional, organism-based; settings: Human immunodeficiency virus 1, HEK-293T, 48 h
[4] = system: Human immunodeficiency virus; assay: Antiviral activity against pseudo Human immunodeficiency virus infected in HEK293T cells after 2 days; assay type: functional, organism-based; settings: Human immunodeficiency virus 1, HEK-293T, 48 h
[5] = Oral bioavailability in rat; assay type: ADME, organism-based; settings: in vivo
[6] = Clearance in iv dosed rat; assay type: ADME, organism-based; settings: in vivo

| Compound | Ratio IC50 [1] | fold change (FC) [2] | IC50 [3] [nM] | IC50 [4] [nM] | bioavailability [5] [%] | clearance [6] [mL/min/kg] |
| --- | --- | --- | --- | --- | --- | --- |
| C[C@@H]1CO[C@H]2Cn3cc(C(=O)NCc4ccc(F)cc4F)c(=O)c(O)c3C(=O)N12 | >7 | 35 | 39 | 5.4 |  |  |
| C[C@@H]1CO[C@H]2Cn3cc(C(=O)NCc4ccc(F)cc4)c(=O)c(O)c3C(=O)N2C1 |  | 36 | 210 | 0.8 |  |  |
| COC[C@H]1CCN2C(=O)c3c(O)c(=O)c(C(=O)NCc4ccc(F)cc4F)cn3C[C@H]2O1 | 2 | 3.5 | 0.9 | 0.4 |  |  |
| CC[C@@H]1CCN2C(=O)c3c(O)c(=O)c(C(=O)NCc4ccc(F)cc4F)cn3C[C@@H]2O1 |  | 4.6 | 9.4 | 0.7 |  |  |
| CC1(C)CO[C@@H]2Cn3cc(C(=O)NCc4ccc(F)cc4)c(=O)c(O)c3C(=O)N2C1 |  | 8.1 | 7.9 | 2 |  |  |
| CC(C)(C)[C@H]1CO[C@@H]2Cn3cc(C(=O)NCc4ccc(F)cc4)c(=O)c(O)c3C(=O)N21 |  | 74 | 35 | 4 |  |  |
| CCCC[C@H]1CO[C@@H]2Cn3cc(C(=O)NCc4ccc(F)cc4F)c(=O)c(O)c3C(=O)N12 |  | >57 | 1800 | 87 |  |  |
| CC[C@@H]1CO[C@H]2Cn3cc(C(=O)NCc4ccc(F)cc4F)c(=O)c(O)c3C(=O)N12 |  | 63 | 35 | 8.5 |  |  |
| CC(C)[C@@H]1CCN2C(=O)c3c(O)c(=O)c(C(=O)NCc4ccc(F)cc4F)cn3C[C@@H]2O1 |  | 8.1 | 20 | 2 |  |  |
| CC(C)[C@H]1CO[C@@H]2Cn3cc(C(=O)NCc4ccc(F)cc4F)c(=O)c(O)c3C(=O)N12 |  | 100 | 300 | 4.8 |  |  |
| CC1(C)CO[C@H]2Cn3cc(C(=O)NCc4ccc(F)cc4)c(=O)c(O)c3C(=O)N2C1 |  | 3.6 | 440 | 1.1 |  |  |
| C[C@H]1CCN2C(=O)c3c(O)c(=O)c(C(=O)NCc4ccc(F)cc4)cn3C[C@H]2O1 |  |  | 3.3 | 1.3 |  |  |
| O=C(NCc1ccc(F)cc1F)c1cn2c(c(O)c1=O)C(=O)N1[C@H](Cc3ccccc3)CO[C@H]1C2 | >7 | 19 | 4.5 | 0.6 |  |  |
| C[C@H]1CO[C@@H]2Cn3cc(C(=O)NCc4ccc(F)cc4)c(=O)c(O)c3C(=O)N12 |  | 13 | 50 | 2.1 |  |  |
| O=C(NCc1ccc(F)cc1F)c1cn2c(c(O)c1=O)C(=O)N1[C@@H](Cc3c[nH]c4ccccc34)CO[C@@H]1C2 |  | 22 | 71 | 1.6 |  |  |
| COC[C@@H]1CCN2C(=O)c3c(O)c(=O)c(C(=O)NCc4ccc(F)cc4F)cn3C[C@@H]2O1 | 2 | 5 | 2.3 | 1.4 |  |  |
| CC(C)[C@@H]1CO[C@H]2Cn3cc(C(=O)NCc4ccc(F)cc4F)c(=O)c(O)c3C(=O)N21 |  | 73 | 16 | 4 |  |  |
| O=C(NCc1ccc(F)cc1)c1cn2c(c(O)c1=O)C(=O)N1CCCO[C@@H]1C2 |  | 11 | 9.4 | 2.2 | 52 | 0.17 |
| C[C@H]1CO[C@@H]2Cn3cc(C(=O)NCc4ccc(F)cc4F)c(=O)c(O)c3C(=O)N2C1 |  | 5.7 | 5.2 | 0.5 |  |  |
| O=C(NCc1ccc(F)cc1F)c1cn2c(c(O)c1=O)C(=O)N1[C@@H](Cc3ccc(O)cc3)CO[C@@H]1C2 |  | 1.6 | 22 | 2.1 |  |  |

| Compound | Ratio IC50 [1] | fold change (FC) [2] | IC50 [3] [nM] | IC50 [4] [nM] | bioavailability [5] [%] | clearance [6] [mL/min/kg] |
| --- | --- | --- | --- | --- | --- | --- |
| O=C(NCc1ccc(F)cc1F)c1cn2c(c(O)c1=O)C(=O)N1[C@@H](c3ccccc3)CO[C@@H]1C2 |  | 44 | 620 | 72 |  |  |
| CC[C@H]1CCN2C(=O)c3c(O)c(=O)c(C(=O)NCc4ccc(F)cc4F)cn3C[C@H]2O1 |  | 2.2 | 3.1 | 0.5 |  |  |
| O=C(NCc1ccc(F)cc1F)c1cn2c(c(O)c1=O)C(=O)N1[C@@H](Cc3ccccc3)CO[C@@H]1C2 |  | 13 | 380 | 13 |  |  |
| C[C@H]1CCO[C@@H]2Cn3cc(C(=O)NCc4ccc(F)cc4F)c(=O)c(O)c3C(=O)N12 |  | 2.2 | 4 | 0.5 |  |  |
| O=C(NCc1ccc(F)cc1)c1cn2c(c(O)c1=O)C(=O)N1CCCOC1C2 (racemic) |  | 2.8 | 20 | 1.9 | 51 | 0.1 |
| CC(C)[C@H]1CCN2C(=O)c3c(O)c(=O)c(C(=O)NCc4ccc(F)cc4F)cn3C[C@H]2O1 |  | 1.9 | 4.1 | 0.7 |  |  |
| O=C(NCc1ccc(F)cc1)c1cn2c(c(O)c1=O)C(=O)N1CCCO[C@H]1C2 | 43 | 2.4 | 81 | 1.9 | 79 | 0.1 |
| O=C(NCc1ccc(F)cc1F)c1cn2c(c(O)c1=O)C(=O)N1[C@@H](CO)CO[C@@H]1C2 |  | 12 | 37 | 10 |  |  |
| CC[C@H]1CO[C@@H]2Cn3cc(C(=O)NCc4ccc(F)cc4F)c(=O)c(O)c3C(=O)N12 |  |  | 63 | 0.9 |  |  |
| C[C@H]1CCN2C(=O)c3c(O)c(=O)c(C(=O)NCc4ccc(F)cc4F)cn3C[C@H]2O1 |  | 2.8 | 1.5 | 0.5 |  |  |
| O=C(NCc1ccc(F)cc1F)c1cn2c(c(O)c1=O)C(=O)N1CC[C@@H](c3ccccc3)O[C@H]1C2 |  | 8.5 | 50 | 5.6 |  |  |
| C[C@@H]1CCN2C(=O)c3c(O)c(=O)c(C(=O)NCc4ccc(F)cc4F)cn3C[C@@H]2O1 |  | 2.1 | 7 | 0.9 |  |  |
| CC(C)C[C@@H]1CO[C@H]2Cn3cc(C(=O)NCc4ccc(F)cc4F)c(=O)c(O)c3C(=O)N12 |  | 51 | 16 | 3.2 |  |  |
| CC[C@H](C)[C@H]1CO[C@@H]2Cn3cc(C(=O)NCc4ccc(F)cc4F)c(=O)c(O)c3C(=O)N12 |  | 200 | 200 | 20 |  |  |
| O=C(NCc1ccc(F)cc1F)c1cn2c(c(O)c1=O)C(=O)N1[C@@H](CC3CCCCC3)CO[C@@H]1C2 |  | >15 | 3100 | 330 |  |  |
| CC(C)(C)[C@H]1CO[C@@H]2Cn3cc(C(=O)NCc4ccc(F)cc4F)c(=O)c(O)c3C(=O)N21 |  | 130 | 130 | 20 |  |  |
| Cc1nnc(C(=O)NC(C)(C)c2nc(C(=O)NCc3ccc(F)cc3)c([O-])c(=O)n2C)o1.[K+] [RALTEGRAVIR POTASSIUM] | 77 | 79 | 7.1 | 2 |  |  |
| C[C@H]1CO[C@@H]2Cn3cc(C(=O)NCc4ccc(F)cc4)c(=O)c(O)c3C(=O)N2C1 |  | 9.9 | 5.6 | 0.7 |  |  |
| CSCC[C@H]1CO[C@@H]2Cn3cc(C(=O)NCc4ccc(F)cc4F)c(=O)c(O)c3C(=O)N12 |  |  | 18 | 3.1 |  |  |
| CS(=O)(=O)CC[C@H]1CO[C@@H]2Cn3cc(C(=O)NCc4ccc(F)cc4F)c(=O)c(O)c3C(=O)N12 |  | >10 | 370 | 430 |  |  |
